From patent US8183206B2, “Drugs comprising combination of antithrombotic agent with pyrazolone derivative” (Mitsubishi Tanabe Pharma Corporation, priority 2001, dated 2012)

Columns and labels:
[1] = test system: patients diagnosed as cerebral infarction; assay: Function prognosis by modified ranking scale in cerebral infarction patients (Example 2); format: in vivo, human; conditions: on leaving hospital within 1 month after start of administration
Procedure: Administration amount and method are shown below.
Sodium ozagrel: 80 mg of sodium ozagrel was dissolved in an adequate amount of an electrolyte solution or carbohydrate solution and the resulting solution was intravenously administered constantly for 2 weeks, twice daily, that is, in the morning and evening, each over 2 hours.
(§1) Argatroban: For the first two days, 60 mg/120 ml of argatroban was diluted with an adequate amount of a transfusion fluid and the resulting solution was intravenously infused constantly over 24 hours. For the following 5 days, 10 mg/20 ml of argatroban was diluted with an adequate amount of a transfusion fluid and the resulting solution was intravenously infused twice daily, that is, in the morning and evening, each over 3 hours.
Sodium ozagrel+edaravone: 80 mg of sodium ozagrel was dissolved in an adequate amount of an electrolyte solution or carbohydrate solution and the resulting solution was intravenously administered constantly for 2 weeks, twice daily, that is, in the morning and evening, each over 2 hours. At the same time, 30 mg/20 ml of edaravone was diluted with an adequate amount of physiological saline and the resulting solution was intravenously infused for 2 weeks, twice daily, that is, in the morning and evening, each over 20 minutes.
as §1, with “Argatroban+edaravone: For” for “Argatroban: For”, “3 hours; and at the same time, 30 mg/20 ml of edaravone was diluted with an adequate amount of physiological saline and the resulting solution was intravenously infused for 2 weeks twice daily, that is, in the morning and evening, each over 30 minutes.” for “3 hours.”
In the above-described table, what the meaning of grade will be explained briefly. Grade 0: no symptoms, Grade 1: some symptoms but non-significant disability (able to carry out all daily activities and affairs), Grade 2: slight disability (unable to carry out all previous activities but able to look after own affairs without assistance), Grade 3: moderate disability (requiring some help, but able to walk without assistance), Grade 4: relatively severe disability (requiring assistance for walk or daily activities), Grade 5: very severe disability (bedridden, incontinence and requiring constant nursing care and attention), Grade 6: death.

[2] = test system: Wistar rat; assay: Influence of t-PA on the bleeding time (tail transection, anesthetized rats); format: in vivo; conditions: for Bleeding time: urethane anesthesia, t-PA 1 mg/kg constant i.v. infusion, edaravone 3 mg/kg i.v. 5 min before tail transection, average ± S.E., measured up to 30 min
Procedure: Via a cannula inserted into the femoral vein of each Wistar rat anesthetized with urethane (1.2 g/kg, i.p.), 1 mg/kg (1 mg=580000 IU; 4 mL/kg, 1 mL/hr) of physiological saline or t-PA was constantly infused. Fifty five minutes after the constant fusion was started, 3 mg of edaravone (3-methyl-1-phenyl-2-pyrazolin-5-one) or physiological saline was administered intravenously. Five minutes after that, the tail was transected at 2 mm from its tip immediately by using a razor. Every 15 seconds, the blood from the tail was blotted with a filter paper and the time until bleeding ceased was measured for up to 30 minutes.

[3] = test system: patients in the acute stage of cerebral infarction; assay: Comparative Example: edaravone alone, modified ranking scale, patients in the acute stage of cerebral infarction; format: in vivo, human; conditions: edaravone used alone, within three months, from cited data
Procedure: Evaluation results of edaravone, when administered alone, in accordance with the modified ranking scale are included in Therapeutic Research, Vol. 19(4), 1333-1345, 1998.
Evaluation method and results: Edaravone (30 mg/20 ml) diluted with 100 ml of physiological saline was intravenously infused to 8 patients in the acute stage of cerebral infarction constantly for 14 days twice daily (morning and evening), each over 30 minutes. During the administration term of this medicament, administration of another medicament which might have an influence on the drug efficacy evaluation was avoided. Evaluation was made in accordance with the modified ranking scale three months after the initiation of the administration or upon discharge of the patient from the hospital within three months after the initiation of administration.

[4] = test system: patients in the acute stage of cerebral infarction; conditions: edaravone 30 mg i.v. twice daily for 14 days; evaluated three months after initiation or upon discharge within three months; cited from earlier work

Row | Molecule | Number of patients in Grade 0 (no symptoms), modified ranking scale [1] | Number of patients in Grade 1 (some symptoms but non-significant disability), modified ranking scale [1] | Number of patients in Grade 2 (slight disability), modified ranking scale [1] | Number of patients in Grade 3 (moderate disability), modified ranking scale [1] | Number of patients in Grade 4 (relatively severe disability), modified ranking scale [1] | Number of patients in Grade 5 (very severe disability), modified ranking scale [1] | Number of patients in Grade 6 (death), modified ranking scale [1] | Influence on bleeding time compared with the control group (physiological saline) ([2]; t-PA 1 mg/kg, result in words) | Bleeding time [2] [min] | Ratio of Grade 0 [3] [%] | Number of patients in Grade 0, modified ranking scale [4] | Number of patients in Grade 1 (some symptoms but non-significant disability), modified ranking scale [4] | Number of patients in Grade 2 (slight disability), modified ranking scale [4] | Number of patients in Grade 3, modified ranking scale [4] | Number of patients in Grade 4 (relatively severe disability), modified ranking scale [4] | Number of patients in Grade 5, modified ranking scale [4] | Number of patients in Grade 6, modified ranking scale [4]
1 | CC1CNc2c(cccc2S(=O)(=O)N[C@@H](CCCNC(=N)N)C(=O)N2CC[C@@H](C)C[C@@H]2C(=O)O)C1 (mixture of isomers) [NOV, (2R, 4R)4-methyl-1-[N^2-((RS)-3-methyl-1,2,3,4-tetrahydro-8-quinolinesulfonyl)-L-arginyl]-2-piperidinecarboxylic acid monohydrate] | 1 | 1 | 2 | 1 | 0 | 3 | 0 |  |  |  |  |  |  |  |  |  | 
2 | O=C([O-])/C=C/c1ccc(Cn2ccnc2)cc1.[Na+] [OZA] | 5 | 2 | 1 | 1 | 0 | 0 | 0 |  |  |  |  |  |  |  |  |  | 
3 | t-PA: tissue plasminogen activator, thrombolytic agent; GRTPA (Mitsubishi Pharma Corporation) can be used |  |  |  |  |  |  |  | prolonged the bleeding time significantly | 17.70 ± 2.85 |  |  |  |  |  |  |  | 
4 | CC1=NN(c2ccccc2)C(=O)C1 [Edaravone, 3-methyl-1-phenyl-2-pyrazolin-5-one] |  |  |  |  |  |  |  |  | 11.55 ± 2.31 | 0 | 0 | 2 | 3 | 0 | 3 | 0 | 0
